Reference: PubChem BioAssay (NCI)
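A five-concentration, 48-hour dose response in 96-well plates underlies each endpoint, interpolated linearly between surrounding concentrations. TGI is the concentration that stops growth completely.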

Legend:
Assay in all cases: DTP human tumour cell line panel, 48 h
RXF 393 renal = test system: RXF 393 renal
SK-MEL-2 melanoma = test system: SK-MEL-2 melanoma
MCF7 breast = test system: MCF7 breast
UACC-62 melanoma = test system: UACC-62 melanoma
HCT-116 colon = test system: HCT-116 colon
BT-549 breast = test system: BT-549 breast
TK-10 renal = test system: TK-10 renal
EKVX NSCLC = test system: EKVX NSCLC
HT29 colon = test system: HT29 colon
UO-31 renal = test system: UO-31 renal
M14 melanoma = test system: M14 melanoma
OVCAR-4 ovarian = test system: OVCAR-4 ovarian
K-562 leukemia = test system: K-562 leukemia
SF-295 CNS = test system: SF-295 CNS
KM12 colon = test system: KM12 colon
DU-145 prostate = test system: DU-145 prostate
COLO 205 colon = test system: COLO 205 colon
SK-MEL-5 melanoma = test system: SK-MEL-5 melanoma

Row | Structure (SMILES) | TGI (RXF 393 renal) | TGI (SK-MEL-2 melanoma) | TGI (MCF7 breast) | TGI (UACC-62 melanoma) | TGI (HCT-116 colon) | TGI (BT-549 breast) | TGI (TK-10 renal) | TGI (EKVX NSCLC) | TGI (HT29 colon) | TGI (UO-31 renal) | TGI (M14 melanoma) | TGI (OVCAR-4 ovarian) | TGI (K-562 leukemia) | TGI (SF-295 CNS) | TGI (KM12 colon) | TGI (DU-145 prostate) | TGI (COLO 205 colon) | TGI (SK-MEL-5 melanoma)
1 | CCN(CC)CCn1nc(N)c2nc3ccccc3nc21 | > 100 µM | > 100 µM | > 100 µM | > 100 µM | > 100 µM | > 100 µM | > 100 µM | > 100 µM | > 100 µM | > 100 µM | > 100 µM | > 100 µM | > 100 µM | > 100 µM | > 100 µM |  |  | 
2 | O=C1CSSCC(=O)Nc2ccccc2N1 | > 100 µM | > 100 µM |  | > 100 µM | > 100 µM | > 100 µM | > 100 µM | > 100 µM | > 100 µM | > 100 µM | > 100 µM | > 100 µM | > 100 µM | > 100 µM | > 100 µM | > 100 µM | > 100 µM | > 100 µM
3 | COc1ccccc1N(CN1C(=O)CCC1C(=O)O)C(C)=O (stereo not given) | > 100 µM | > 100 µM | > 100 µM | > 100 µM | > 100 µM |  | > 100 µM | > 100 µM | > 100 µM | > 100 µM | > 100 µM | > 100 µM | > 100 µM | > 100 µM | > 100 µM | > 100 µM | > 100 µM | > 100 µM
4 | CCOC(=O)N(NC(=O)NC(C)C)c1ccccc1 | > 100 µM | > 100 µM | > 100 µM | > 100 µM | > 100 µM | > 100 µM | > 100 µM | > 100 µM | > 100 µM | > 100 µM | > 100 µM | > 100 µM | > 100 µM | > 100 µM | > 100 µM |  | > 100 µM | > 100 µM
5 | O=C(Cn1c2c(c3ccccc31)CCCC2)N1CCCC1 |  | > 100 µM | > 100 µM | > 100 µM | > 100 µM | > 100 µM | > 100 µM | > 100 µM | > 100 µM | > 100 µM | > 100 µM | 73.3 µM |  | > 100 µM |  |  | > 100 µM | > 100 µM
6 | CC1OC(OC2C(OC(=O)[C@]34CCC(C)(C)CC3C3=CCC5[C@@]6(C)C[C@H](O)[C@H](OC7OC(CO)C(O)C(O)C7N)[C@@](C)(C(=O)O)C6CC[C@@]5(C)C3(C)CC4)OCC(O)C2O)C(O)C(O)C1OC1OCC(O)C(O)C1O (stereo not given in full) | > 100 µM | > 100 µM |  | > 100 µM |  |  | > 100 µM | > 100 µM | > 100 µM | > 100 µM |  |  | > 100 µM | > 100 µM | > 100 µM |  | > 100 µM | > 100 µM
7 | COc1ccc2c(c1)C(=O)Cc1ccccc1CC2 | > 100 µM | > 100 µM |  | > 100 µM | > 100 µM |  | > 100 µM | > 100 µM | > 100 µM | > 100 µM | > 100 µM | > 100 µM | > 100 µM | > 100 µM | > 100 µM |  | > 100 µM | > 100 µM
8 | CCOC(=O)CCCNC(=O)CCCCC(=O)N(C)C |  | > 100 µM | > 100 µM | > 100 µM | > 100 µM | > 100 µM | > 100 µM | > 100 µM | > 100 µM | > 100 µM | > 100 µM |  | > 100 µM | > 100 µM | > 100 µM | > 100 µM | > 100 µM | > 100 µM
9 | O=C1c2ccccc2C(=O)c2c1cc(S(=O)(=O)O)c(O)c2O | > 100 µM | > 100 µM |  | > 100 µM | > 100 µM |  | > 100 µM | > 100 µM | > 100 µM | > 100 µM | > 100 µM | > 100 µM | > 100 µM | > 100 µM | > 100 µM |  | > 100 µM | 
10 | CC(C)NC(NC(C)C)=C(S(=O)(=O)C(F)(F)C(F)(F)C(F)(F)C(F)(F)F)S(=O)(=O)C(F)(F)C(F)(F)C(F)(F)C(F)(F)F |  | > 100 µM | > 100 µM | > 100 µM | > 100 µM | > 100 µM | > 100 µM | > 100 µM | > 100 µM | > 100 µM | > 100 µM | > 100 µM | > 100 µM | > 100 µM | > 100 µM | > 100 µM | > 100 µM | > 100 µM
11 | O=C(O)CCCn1nnc2c(=O)[nH][nH]c(=O)c21 |  | > 100 µM | > 100 µM |  | > 100 µM | > 100 µM | > 100 µM | > 100 µM | > 100 µM | > 100 µM | > 100 µM | > 100 µM | > 100 µM | > 100 µM | > 100 µM | > 100 µM | > 100 µM | > 100 µM
12 | O=c1c2ccccc2[nH]c2c(Cl)cc(Cl)c(NC3CCCCC3)c12 |  | 41.9 µM | 76.2 µM | 36.6 µM | > 100 µM | 67.3 µM | 61.3 µM | 76.8 µM | 30.6 µM | 33.5 µM | 47.7 µM | > 100 µM | > 100 µM | > 100 µM | 32.4 µM |  | > 100 µM | > 100 µM
13 | Cc1c(C)c(C)n(C2OC(CO)C(O)C(O)C2O)c(=S)c1C#N (stereo not given) | > 100 µM | > 100 µM | > 100 µM | > 100 µM | > 100 µM |  | > 100 µM | > 100 µM | > 100 µM | > 100 µM | > 100 µM | > 100 µM | > 100 µM | > 100 µM | > 100 µM | > 100 µM | > 100 µM | > 100 µM
14 | O=C(NC12CC3CC(CC(F)(C3)C1)C2)c1ccccc1 | > 100 µM | > 100 µM |  | > 100 µM | > 100 µM |  | > 100 µM | > 100 µM | > 100 µM | > 100 µM | > 100 µM |  | > 100 µM |  | > 100 µM |  | > 100 µM | 
15 | Cc1ccc(/C(Cl)=C/C=C(C#N)C#N)cc1 | 7.66 µM | > 100 µM | > 100 µM | 15.7 µM |  |  | 13.2 µM | 27.5 µM |  | > 100 µM | 6.37 µM | 8.74 µM | 19.4 µM | 26.9 µM | 21 µM | 23.9 µM | 12.1 µM | 4.01 µM
